According to patent publication US10287267B2, “Isoquinolin-3-yl carboxamides and preparation and use thereof” (Samumed, LLC, priority 2016, dated 2019):
Like-named read-outs stand apart in the source and are kept apart here.

Tests used:
[1] = test system: α-smooth muscle actin (αSMA) positive LL29 cells; assay: Inhibition of fibrotic process: αSMA in TGF-β1 treated primary human fibroblasts from IPF patients; type: cell-based; details: Homo sapiens, Fibroblast; for EC50: 96 h, Table 8, LL29 fibroblasts from IPF patients, TGF-β1 20 ng/mL, 4 days, dose-response 10 μM to 0.94 nM; for inhibition at 10 µM: read-out: percent value in parentheses beside EC50 >10 μM;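 for all read-outs here: controls were TGF-β1 stimulated wells with DMSO vehicle (positive) and cells given DMSO alone (negative), cultured in F12 medium with 1% fetal bovine serum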
[2] = test system: Wnt pathway (Sp5-Luc reporter, TCF/LEF binding sites) in SW480 colon carcinoma cells; assay: Screening assay for Wnt activity: Sp5-Luc reporter gene assay; type: cell-based, human; details: Homo sapiens; for EC50: Sp5-Luc reporter, SW480 cells, 36 to 48 hours;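 for all read-outs here: firefly luciferase luminescence read in stably transduced SW480 cells carrying the Sp5 promoter reporter with eight TCF/LEF sites, compounds given in 0.1% DMSO final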
Method: The screening assay for Wnt activity is described as follows.
Following incubation, 15 μl of BriteLite Plus luminescence reagent (Perkin Elmer) was added to each well of the 384-well assay plates. The plates were placed on an orbital shaker for 2 min and then luminescence was quantified using the Envision (Perkin Elmer) plate reader.

[3] = target: recombinant DYRK1A kinase (Homo sapiens (Human), UniProt Q13627); assay: DYRK1A kinase assay (Ser/Thr 18 peptide Z-lyte FRET); type: biochemical; details: 30 μM ATP, 1 h room temperature;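 note: Read-out is the coumarin to fluorescein emission ratio, referenced to unphosphorylated (0%) and phosphorylated (100%) Ser/Thr 18 peptide controls, values from dose-response curves by non-linear regression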
[4] = test system: Tau phosphorylation at Ser396 (pSer396); assay: Tau phosphorylation assay (pSer396 ELISA / western blot) in SH-SY5Y cells; type: cell-based, human; details: Homo sapiens, read-out: pSer396 Tau EC50;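 note: EC50 for reduction of Tau pSer396 in lysed cells, measured by colorimetric ELISA or chemiluminescent western blot, both using the same pSer396 antibody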
recombinant GSK3β kinase = recombinant GSK3β kinase (Homo sapiens (Human), UniProt P49841); assay: GSK3β kinase assay (Ser/Thr 09 peptide Z-lyte FRET); type: biochemical; details: 46 μM ATP, 1 h room temperature;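 note: kinase activity read as coumarin to fluorescein emission ratio, 11-point threefold dilutions from 10 µM to 0.0003 µM in duplicate, unphosphorylated and phosphorylated peptide as 0% and 100% controls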
[5] = test system: SW480 colon carcinoma cells; assay: Cell viability assay (CellTiter-Glo); type: cell-based, human; details: Homo sapiens; for EC50: 96 h, SW480 cells, CellTiter-Glo, four days incubation
IL-6 = IL-6 inhibition in LPS-stimulated human peripheral blood mononuclear cells (HTRF); type: cell-based; details: Homo sapiens, PBMC; for EC50: Table 9, huPBMCs, LPS 50 ng/mL, 22 hours, dose-response starting from 10 μM; for inhibition at 10 µM: read-out: percent value in parentheses beside EC50 >10 μM;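 for all read-outs here: IL-6 detected by HTRF with an XL665- and Cryptate-labelled anti-IL-6 antibody pair, samples run in duplicate, EC50 obtained from a four-parameter Levenberg-Marquardt curve fit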
Method: After 22 hour incubation, a mixture of anti-IL6 XL665 and anti-IL-6 Cryptate diluted in reconstitution buffer (Catalog #62IL6PEC, Cisbio Inc., Bedford, Mass.) was added to each well. […] All samples were processed in duplicate. […] EC50 was determined using software generated by Dotmatics Limited (Windhill Bishops Stortford Herts, UK) using the Levenberg-Marquardt 4 parameter fitting procedure with finite different gradients.

[6] = SH-SY5Y cells, overnight (16-18 h) exposure
[7] = SW480, read-out: percent inhibition at 10 μM

Sequence of recombinant GSK3β kinase (P49841 whole entry): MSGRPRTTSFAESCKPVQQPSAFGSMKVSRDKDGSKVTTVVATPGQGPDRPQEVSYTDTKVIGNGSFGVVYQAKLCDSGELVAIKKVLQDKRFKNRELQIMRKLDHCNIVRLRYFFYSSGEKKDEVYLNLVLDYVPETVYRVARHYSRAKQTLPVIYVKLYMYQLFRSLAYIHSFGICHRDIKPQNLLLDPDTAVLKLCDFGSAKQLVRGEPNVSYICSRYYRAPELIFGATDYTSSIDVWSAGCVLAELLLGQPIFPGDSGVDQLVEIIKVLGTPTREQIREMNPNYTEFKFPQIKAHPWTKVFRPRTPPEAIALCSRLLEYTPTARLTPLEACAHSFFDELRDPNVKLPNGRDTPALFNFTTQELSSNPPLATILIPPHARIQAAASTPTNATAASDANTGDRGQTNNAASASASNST

Row | SMILES | EC50 [1] | EC50 [2] | EC50 [3] | EC50 [4, 6] | EC50 (recombinant GSK3β kinase) | EC50 [5] | EC50 (IL-6) | inhibition at 10 µM [1] | inhibition at 10 µM (IL-6) | EC50 ([4]; SH-SY5Y) | inhibition at 10 µM [2, 7] | inhibition at 10 µM [5, 7]
1 | CC(C)CN1CCC(C(=O)Nc2cc3cc(-c4cnn(C)c4)cc(F)c3cn2)CC1 [Compound 367, N-(8-Fluoro-6-(1-methyl-1H-pyrazol-4-yl)isoquinolin-3-yl)-1-isobutylpiperidine-4-carboxamide] | 211 nM | 524 nM | 11.1 nM | 258 nM | 56 nM | 8240 nM | 1150 nM | – | – | – | – | –
2 | Cn1cc(-c2cc(F)c3cnc(NC(=O)C4CCN(CCF)CC4)cc3c2)cn1 [Compound 368, N-(8-Fluoro-6-(1-methyl-1H-pyrazol-4-yl)isoquinolin-3-yl)-1-(2-fluoroethyl) piperidine-4-carboxamide] | 272 nM | 689 nM | 7.9 nM | 660 nM | 51 nM | 651 nM | 1190 nM | – | – | – | – | –
3 | Cn1cc(-c2cc3cc(NC(=O)C4CCNCC4)ncc3cc2F)cn1 [Compound 369, N-(7-Fluoro-6-(1-methyl-1H-pyrazol-4-yl)isoquinolin-3-yl)piperidine-4-carboxamide] | 295 nM | 743 nM | 2.8 nM | 970 nM | 101 nM | 864 nM | 1130 nM | – | – | – | – | –
4 | CC(C)CN1CCC(C(=O)Nc2cc3cc(-c4cnn(C)c4)c(F)cc3cn2)CC1 [Compound 370, N-(7-Fluoro-6-(1-methyl-1H-pyrazol-4-yl)isoquinolin-3-yl)-1-isobutylpiperidine-4-carboxamide] | 379 nM | 608 nM | 3.1 nM | 256 nM | 89 nM | 1250 nM | 3710 nM | – | – | – | – | –
5 | Cn1cc(-c2cc3cc(NC(=O)C4CCN(CCF)CC4)ncc3cc2F)cn1 [Compound 371, N-(7-Fluoro-6-(1-methyl-1H-pyrazol-4-yl)isoquinolin-3-yl)-1-(2-fluoroethyl) piperidine-4-carboxamide] | 394 nM | 643 nM | 2.4 nM | 581 nM | 23 nM | 1060 nM | 1210 nM | – | – | – | – | –
6 | CN1CCN(CC(=O)Nc2cc3cc(-c4cnn(C)c4)c(F)cc3cn2)CC1 [Compound 372, N-(7-Fluoro-6-(1-methyl-1H-pyrazol-4-yl)isoquinolin-3-yl)-2-(4-methylpiperazin-1-yl)acetamide] | 504 nM | 3400 nM | 10.6 nM | 1100 nM | 79 nM | 8820 nM | 3660 nM | – | – | – | – | –
7 | Cc1ncc(-c2ccc3cnc(NC(=O)C4(F)CC4)cc3c2)n1C [Compound 376, N-(6-(1,2-Dimethyl-1H-imidazol-5-yl)isoquinolin-3-yl)-1-fluorocyclopropane-1-carboxamide] | > 10000 nM | 2210 nM | 5.5 nM | 7900 nM | 710 nM | 4200 nM | > 10000 nM | 21% | 11.8% | – | – | –
8 | Cn1cc(-c2ccc3cnc(NC(=O)C4CC4)cc3c2)nn1 [Compound 433, N-(6-(1-Methyl-1H-1,2,3-triazol-4-yl)isoquinolin-3-yl) cyclopropanecarboxamide] | 52 nM | 191 nM | 1.9 nM | 32 nM | 1 nM | 615 nM | 411 nM | – | – | – | – | –
9 | Cn1cc(-c2ccc3cnc(NC(=O)C4CCC(F)(F)CC4)cc3c2)nn1 [Compound 441, 4,4-Difluoro-N-(6-(1-methyl-1H-1,2,3-triazol-4-yl)isoquinolin-3-yl) cyclohexane-1-carboxamide] | 57 nM | 1210 nM | 9.1 nM | 73 nM | 5 nM | 5270 nM | 3350 nM | – | – | – | – | –
10 | Cn1cc(-c2ccc3cnc(NC(=O)[C@H]4CC[C@H](N(C)C)CC4)cc3c2)nn1 [Compound 443, trans-4-(Dimethylamino)-N-(6-(1-methyl-1H-1,2,3-triazol-4-yl)isoquinolin-3-yl)cyclohexane-1-carboxamide] | 371 nM | 397 nM | 2.2 nM | 289 nM | 13 nM | 1680 nM | 3290 nM | – | – | – | – | –
11 | CN1CCN(C[C@H]2CC[C@H](C(=O)Nc3cc4cc(-c5cn(C)nn5)ccc4cn3)CC2)CC1 [Compound 448, trans-N-(6-(1-Methyl-1H-1,2,3-triazol-4-yl)isoquinolin-3-yl)-4-((4-methylpiperazin-1-yl)methyl)cyclohexane-1-carboxamide] | 59 nM | 289 nM | 1.2 nM | 106 nM | 11 nM | 626 nM | 2180 nM | – | – | – | – | –
12 | Cn1cc(-c2ccc3cnc(NC(=O)C4CCNCC4)cc3c2)nn1 [Compound 452, N-(6-(1-Methyl-1H-1,2,3-triazol-4-yl)isoquinolin-3-yl)piperidine-4-carboxamide] | 220 nM | 787 nM | 0.4 nM | 912 nM | 7 nM | 1450 nM | 2970 nM | – | – | – | – | –
13 | Cn1cc(-c2ccc3cnc(NC(=O)C4CCN(CC5(C(F)(F)F)CC5)CC4)cc3c2)nn1 [Compound 470, N-(6-(1-Methyl-1H-1,2,3-triazol-4-yl)isoquinolin-3-yl)-1-((1-(trifluoromethyl)cyclopropyl)methyl)piperidine-4-carboxamide] | 387 nM | 1180 nM | 2.7 nM | 95 nM | 4 nM | 4190 nM | 3550 nM | – | – | – | – | –
14 | Cn1cc(-c2ccc3cnc(NC(=O)C4CCN(CC5(C)COC5)CC4)cc3c2)nn1 [Compound 472, N-(6-(1-Methyl-1H-1,2,3-triazol-4-yl)isoquinolin-3-yl)-1-((3-methyloxetan-3-yl)methyl)piperidine-4-carboxamide] | 243 nM | 382 nM | 3.2 nM | 200 nM | 8 nM | 5090 nM | 5410 nM | – | – | – | – | –
15 | Cn1cc(-c2ccc3cnc(NC(=O)C4CCN(C(=O)CN5CCCC5)CC4)cc3c2)nn1 [Compound 475, N-(6-(1-Methyl-1H-1,2,3-triazol-4-yl)isoquinolin-3-yl)-1-(2-(pyrrolidin-1-yl)acetyl)piperidine-4-carboxamide] | 140 nM | 701 nM | 3.2 nM | 1800 nM | 23 nM | 1060 nM | 2560 nM | – | – | – | – | –
16 | CN1CCC(N2CCC(C(=O)Nc3cc4cc(-c5cn(C)nn5)ccc4cn3)CC2)CC1 [Compound 477, 1′-Methyl-N-(6-(1-methyl-1H-1,2,3-triazol-4-yl)isoquinolin-3-yl)-[1,4′-bipiperidine]-4-carboxamide] | 77 nM | 327 nM | 1.1 nM | 188 nM | 6 nM | 719 nM | 2990 nM | – | – | – | – | –
17 | Cn1cc(-c2ccc3cnc(NC(=O)[C@@H]4CCCNC4)cc3c2)nn1 [Compound 481, (R)—N-(6-(1-Methyl-1H-1,2,3-triazol-4-yl)isoquinolin-3-yl)piperidine-3-carboxamide] | 1020 nM | 1540 nM | 4.3 nM | 662 nM | 4 nM | 1370 nM | 1140 nM | – | – | – | – | –
18 | CC(C)CN1CCC[C@@H](C(=O)Nc2cc3cc(-c4cn(C)nn4)ccc3cn2)C1 [Compound 483, (R)-1-Isobutyl-N-(6-(1-methyl-1H-1,2,3-triazol-4-yl)isoquinolin-3-yl) piperidine-3-carboxamide] | 315 nM | 1870 nM | 11.3 nM | 611 nM | 45 nM | 7340 nM | 9620 nM | – | – | – | – | –
19 | Cn1cc(-c2ccc3cnc(NC(=O)CN4CCCC4)cc3c2)nn1 [Compound 487, N-(6-(1-Methyl-1H-1,2,3-triazol-4-yl)isoquinolin-3-yl)-2-(pyrrolidin-1-yl) acetamide] | 367 nM | 446 nM | 7.7 nM | 161 nM | 7 nM | 2680 nM | 3300 nM | – | – | – | – | –
20 | Cn1cc(-c2ccc3cnc(NC(=O)CN4C5CCC4CC5)cc3c2)nn1 [Compound 513, 2-(7-Azabicyclo[2.2.1]heptan-7-yl)-N-(6-(1-methyl-1H-1,2,3-triazol-4-yl)isoquinolin-3-yl)acetamide] | 1350 nM | 6430 nM | 10.4 nM | – | 43 nM | 9060 nM | > 10000 nM | – | 14.5% | 864 nM | – | –
21 | Cn1cncc1-c1ccc2cnc(NC(=O)C(C)(C)F)cc2c1 [Compound 517, 2-Fluoro-2-methyl-N-(6-(1-methyl-1H-imidazol-5-yl)isoquinolin-3-yl) propanamide] | > 10000 nM | > 10000 nM | 9.6 nM | 1300 nM | 470 nM | > 10000 nM | 9070 nM | 29.9% | – | – | 35.8% | 27.5%
